# Assay results as given in the OPERA property sets (Mansouri et al. 2018).
row,Compound,logP
1,Cc1ccnnc1,-0.32
2,CCOC(=O)c1ccnnc1,0.23
3,Clc1ncccn1,0.36
4,COC(=O)c1ncccn1,-0.71
5,CCc1nccnc1OC,1.8
6,COc1ccnnc1,-0.31
7,Cc1cncnc1,0.01
8,Fc1cncc(F)n1,0.74
9,Clc1cccnn1,0.1
10,CC(=O)Nc1cncnc1,-0.22
11,Nc1ccncn1,-0.25
12,NC(=O)c1ccncn1,-0.68
13,COc1ccncn1,0.54
14,NC(=O)c1cccnn1,-0.73
15,N#Cc1ncc(Cl)nc1C#N,0.95
16,Nc1ccnnc1,-0.53
17,CN(C)c1ncccn1,1.07
18,Nc1cnc(Cl)cn1,0.67
19,NC(=O)c1cncnc1,-0.92
20,COC(=O)c1ccncn1,-0.27
21,CCOC(=O)c1cncnc1,0.52
22,COc1cccnn1,0.08

row,Compound,logP
1,NC(=O)c1ncccn1,-1.2
2,COC(=O)c1ccoc1,1.28
3,COc1cncnc1,0.07
4,CN(C)c1ccncn1,0.58
5,COC(=O)c1cccnn1,-0.43
6,CCOc1cccnn1,0.63
7,CSc1ncccn1,1.01
8,N#Cc1ncccn1,-0.31
9,Fc1ncccn1,0.02
10,CCOc1ncccn1,0.74
11,CC(=O)Nc1ccncn1,0.03
12,CCOC(=O)c1ncccn1,-0.31
13,Cc1cccnn1,-0.35
14,CN(C)c1cncnc1,0.46
15,COC(=O)c1cncnc1,0.03
16,CCOc1cncnc1,0.56
17,NC(=O)c1ccnnc1,-0.96
18,Cc1ncccn1,-0.05
19,CCOc1nccnc1C,1.82
20,CCCCc1nc(C#N)c(C#N)nc1C,2.3
21,COC(=O)c1ccnnc1,-0.27
22,N#Cc1ccnnc1,-0.63
